Laboratory results as given in article PMC11999280, “Design and screening of novel endosomal escape compounds that enhance functional delivery of oligonucleotides in vitro” (Molecular Therapy. Nucleic Acids, 2025).

Columns and labels:
Format in all cases: cell-based
[1] = test system: mCherry-GAL9 expressing NCI-H358 cells; experiment: GAL9 recruitment assay, NCI-H358; details: calculated mean from >3 independent exp.
Protocol: (§1) Experiments assessing GAL9 localization as an indicator for endosomal remodeling were performed as previously described[15] using 8× stablemCherry-GAL9 expressing cell lines, SHSY5Y, U2OS, 16HBE, NCI-H358, HuH7, HepG2, HEK293, and HeLa. For mCherry-GAL9 recruitment, 3,000 or 6,500 cells/well (depending upon cell line) were seeded into 384-well CellCarrier Ultra plates 24 h prior to treatment (PerkinElmer, catalog no. 6007558). An Echo 655T acoustic dispenser (Labcyte) was used for EEE dose-response preparation by transferring to the cell plate. At assay endpoints, cells were PBS washed, 4% paraformaldehyde fixed at room temperature […] (VWR, catalog no. 9713.1000), and nuclei stained with PBS +1 μg/mL Hoechst 33342 (Thermo Fisher Scientific, catalog no. H21492).
(§2) Imaging was performed using a spinning-disk confocal microscope (Yokogawa: CV8000) with a ×20w objective (numerical aperture 1.0). Cells and mCherry-GAL9 structure identification and quantification were done using Columbus image-analysis software (PerkinElmer version 2.9.0). Data processing was done using Spotfire (Tibco version 11.4) and Prism (GraphPad version 9.1.0). Image panels were assembled using the FigureJ plugin for FIJI.[43] All mCherry-GAL9 experiments were performed three times (N = 3) with duplicated wells per treatment (n = 2).

[2] = test system: mCherry-GAL9 expressing HepG2 cells; experiment: GAL9 recruitment assay, HepG2; details: calculated mean from >3 independent exp.
Protocol: as §1, §2

[3] = test system: HeLa_Luc705 cells (pLuc/705 splice-switching reporter); experiment: Functional 705-SSO delivery, luciferase splice-switching assay; details: HeLa-Luc705 + 2 µM SSO, mean from >3 independent experiments
Excerpt: Therefore, next, we functionally screened the SSO delivery in the HeLa_Luc705 reporter cell line. HeLa_Luc705 carries a pLuc/705 splice-switching reporter luciferase gene interrupted by a mutated β-globin intron, which creates a preferentially used cryptic 5′ splice site leading to aberrant splicing. Functional SSO delivery masks the cryptic site, redirecting the splicing machinery to the right splicing site, allowing the measurement of luciferase expression (Figure S1).[25]^,[26]^,[27]^,[28] We used SSO transfection with LF2000 as transfection control and the previously published endosomal escape enhancer CMP05 (here, EEE2) as positive control.[15]
For the assessment of functional SSO therapeutics, a HeLa_Luc705 cell line was grown in DMEM media supplemented with 10% fetal bovine serum (FBS). For most treatments, 10,000 cells/well were seeded in a 96-well plate, 24 h pre-incubated with 1- to 2-μM oligonucleotide, and then treated at the described EEE concentration. At 24 h post-treatment, cells were PBS rinsed and collected for further analysis (treatments and incubation times changed accordingly to the experiment design). Luciferase readout was performed as previously described,[15] using a GloMax 96-well plate microplate luminometer (Promega) immediately after adding 30 μL auto-injected luciferin substrate (Promega Firefly Luciferase Assay System; Thermo Scientific, catalog no. 16174) in a white-walled 96-well plate containing 30 μL 0.1% Triton X-100 (Sigma-Aldrich) cell lysed. Photon exposure time and delay were set to 10 and 2 s after injection. LF2000 was used as the transfection reagent control (Thermo Scientific, catalog no. 11668019). For EEE experiments using 1 or 2 μM SSOs, the control was prepared using lipofection with 100–200 nM SSO; this is to avoid complex induced cell toxicity.
705-SSO was purchased from and synthesized by Integrated DNA Technologies. The 705-SSO sequence was previously published, containing 2′-O-methylated bases and only phosphorothioate-saturated backbone linkages were included.[15] The 705-SSO was high-performance liquid chromatography purified, shipped, and stored in IDTE buffer (10 mM Tris, 0.1 mM EDTA).

[4] = test system: mCherry-GAL9 expressing HeLa cells; experiment: GAL9 recruitment assay, HeLa; details: calculated mean from >3 independent exp.
Protocol: as §1, §2

[5] = test system: mCherry-GAL9 expressing U2OS cells; experiment: GAL9 recruitment assay, U2OS; details: calculated mean from >3 independent exp.
Protocol: as §1, §2

[6] = test system: mCherry-GAL9 expressing HEK293 cells; experiment: GAL9 recruitment assay, HEK293; details: calculated mean from >3 independent exp.
Protocol: as §1, §2

[7] = test system: mCherry-GAL9 expressing SHSY5Y cells; experiment: GAL9 recruitment assay, SHSY5Y; details: calculated mean from >3 independent exp.
Protocol: as §1, §2

[8] = test system: mCherry-GAL9 expressing HuH7 cells; experiment: GAL9 recruitment assay, HuH7; details: calculated mean from >3 independent exp.
Protocol: as §1, §2

[9] = test system: mCherry-GAL9 expressing 16HBE cells; experiment: GAL9 recruitment assay, 16HBE; details: calculated mean from >3 independent exp.
Protocol: as §1, §2

## CCOc1nn(C2CCN(C)CC2)cc1Nc1ncc(C(F)(F)F)c(-c2c[nH]c3ccccc23)n1 [EEE15]
[1]; EEE 0.31 µM
  Gal9 response compared to reference: 0.013
[1]; EEE 0.62 µM
  Gal9 response compared to reference: 0.016
[1]; EEE 1.25 µM
  Gal9 response compared to reference: 0.017
[1]; EEE 2.5 µM
  Gal9 response compared to reference: 0.015
[1]; EEE 5 µM
  Gal9 response compared to reference: 0.016
[1]; EEE 10 µM
  Gal9 response compared to reference: 0.011
[2]; EEE 0.31 µM
  Gal9 response compared to reference: 0.008
[2]; EEE 0.62 µM
  Gal9 response compared to reference: 0.008
[2]; EEE 1.25 µM
  Gal9 response compared to reference: 0.009
[2]; EEE 2.5 µM
  Gal9 response compared to reference: 0.007
[2]; EEE 5 µM
  Gal9 response compared to reference: 0.007
[2]; EEE 10 µM
  Gal9 response compared to reference: 0.010
[3]; EEE 2.5 - 3 µM
  Luciferase expression compared to reference: 0.652
[4]; EEE 0.31 µM
  Gal9 response compared to reference: 0.004
[4]; EEE 0.62 µM
  Gal9 response compared to reference: 0.004
[4]; EEE 1.25 µM
  Gal9 response compared to reference: 0.004
[4]; EEE 2.5 µM
  Gal9 response compared to reference: 0.005
[4]; EEE 5 µM
  Gal9 response compared to reference: 0.004
[4]; EEE 10 µM
  Gal9 response compared to reference: 0.003
[5]; EEE 0.31 µM
  Gal9 response compared to reference: 0.010
[5]; EEE 0.62 µM
  Gal9 response compared to reference: 0.009
[5]; EEE 1.25 µM
  Gal9 response compared to reference: 0.010
[5]; EEE 2.5 µM
  Gal9 response compared to reference: 0.009
[5]; EEE 5 µM
  Gal9 response compared to reference: 0.014
[5]; EEE 10 µM
  Gal9 response compared to reference: 0.014
[6]; EEE 0.31 µM
  Gal9 response compared to reference: 0.020
[6]; EEE 0.62 µM
  Gal9 response compared to reference: 0.019
[6]; EEE 1.25 µM
  Gal9 response compared to reference: 0.015
[6]; EEE 2.5 µM
  Gal9 response compared to reference: 0.015
[6]; EEE 5 µM
  Gal9 response compared to reference: 0.018
[6]; EEE 10 µM
  Gal9 response compared to reference: 0.022
[7]; EEE 0.31 µM
  Gal9 response compared to reference: 0.014
[7]; EEE 0.62 µM
  Gal9 response compared to reference: 0.017
[7]; EEE 1.25 µM
  Gal9 response compared to reference: 0.014
[7]; EEE 2.5 µM
  Gal9 response compared to reference: 0.016
[7]; EEE 5 µM
  Gal9 response compared to reference: 0.012
[7]; EEE 10 µM
  Gal9 response compared to reference: 0.012
[8]; EEE 0.31 µM
  Gal9 response compared to reference: 0.008
[8]; EEE 0.62 µM
  Gal9 response compared to reference: 0.007
[8]; EEE 1.25 µM
  Gal9 response compared to reference: 0.008
[8]; EEE 2.5 µM
  Gal9 response compared to reference: 0.009
[8]; EEE 5 µM
  Gal9 response compared to reference: 0.009
[8]; EEE 10 µM
  Gal9 response compared to reference: 0.011
[9]; EEE 0.31 µM
  Gal9 response compared to reference: 0.006
[9]; EEE 0.62 µM
  Gal9 response compared to reference: 0.007
[9]; EEE 1.25 µM
  Gal9 response compared to reference: 0.007
[9]; EEE 2.5 µM
  Gal9 response compared to reference: 0.008
[9]; EEE 5 µM
  Gal9 response compared to reference: 0.010
[9]; EEE 10 µM
  Gal9 response compared to reference: 0.034

## CCOc1nn(C2CCN(C)CC2)cc1Nc1ncc(F)c(-n2ccc3c(C#N)cccc32)n1 [EEE13]
[1]; EEE 0.31 µM
  Gal9 response compared to reference: 0.019
[1]; EEE 0.62 µM
  Gal9 response compared to reference: 0.018
[1]; EEE 1.25 µM
  Gal9 response compared to reference: 0.013
[1]; EEE 2.5 µM
  Gal9 response compared to reference: 0.014
[1]; EEE 5 µM
  Gal9 response compared to reference: 0.015
[1]; EEE 10 µM
  Gal9 response compared to reference: 0.038
[2]; EEE 0.31 µM
  Gal9 response compared to reference: 0.008
[2]; EEE 0.62 µM
  Gal9 response compared to reference: 0.007
[2]; EEE 1.25 µM
  Gal9 response compared to reference: 0.008
[2]; EEE 2.5 µM
  Gal9 response compared to reference: 0.009
[2]; EEE 5 µM
  Gal9 response compared to reference: 0.006
[2]; EEE 10 µM
  Gal9 response compared to reference: 0.007
[3]; EEE 5 µM
  Luciferase expression compared to reference: 1.314
[3]; EEE 1-1.25 µM
  Luciferase expression compared to reference: 0.743
[3]; EEE 2.5 - 3 µM
  Luciferase expression compared to reference: 0.692
[4]; EEE 0.31 µM
  Gal9 response compared to reference: 0.005
[4]; EEE 0.62 µM
  Gal9 response compared to reference: 0.004
[4]; EEE 1.25 µM
  Gal9 response compared to reference: 0.004
[4]; EEE 2.5 µM
  Gal9 response compared to reference: 0.003
[4]; EEE 5 µM
  Gal9 response compared to reference: 0.007
[4]; EEE 10 µM
  Gal9 response compared to reference: 0.023
[5]; EEE 0.31 µM
  Gal9 response compared to reference: 0.014
[5]; EEE 0.62 µM
  Gal9 response compared to reference: 0.011
[5]; EEE 1.25 µM
  Gal9 response compared to reference: 0.010
[5]; EEE 2.5 µM
  Gal9 response compared to reference: 0.014
[5]; EEE 5 µM
  Gal9 response compared to reference: 0.023
[5]; EEE 10 µM
  Gal9 response compared to reference: 0.072
[6]; EEE 0.31 µM
  Gal9 response compared to reference: 0.018
[6]; EEE 0.62 µM
  Gal9 response compared to reference: 0.024
[6]; EEE 1.25 µM
  Gal9 response compared to reference: 0.021
[6]; EEE 2.5 µM
  Gal9 response compared to reference: 0.020
[6]; EEE 5 µM
  Gal9 response compared to reference: 0.032
[6]; EEE 10 µM
  Gal9 response compared to reference: 0.097
[7]; EEE 0.31 µM
  Gal9 response compared to reference: 0.014
[7]; EEE 0.62 µM
  Gal9 response compared to reference: 0.015
[7]; EEE 1.25 µM
  Gal9 response compared to reference: 0.012
[7]; EEE 2.5 µM
  Gal9 response compared to reference: 0.013
[7]; EEE 5 µM
  Gal9 response compared to reference: 0.044
[7]; EEE 10 µM
  Gal9 response compared to reference: 0.421
[8]; EEE 0.31 µM
  Gal9 response compared to reference: 0.010
[8]; EEE 0.62 µM
  Gal9 response compared to reference: 0.007
[8]; EEE 1.25 µM
  Gal9 response compared to reference: 0.011
[8]; EEE 2.5 µM
  Gal9 response compared to reference: 0.015
[8]; EEE 5 µM
  Gal9 response compared to reference: 0.012
[8]; EEE 10 µM
  Gal9 response compared to reference: 0.046
[9]; EEE 0.31 µM
  Gal9 response compared to reference: 0.009
[9]; EEE 0.62 µM
  Gal9 response compared to reference: 0.011
[9]; EEE 1.25 µM
  Gal9 response compared to reference: 0.010
[9]; EEE 2.5 µM
  Gal9 response compared to reference: 0.013
[9]; EEE 5 µM
  Gal9 response compared to reference: 0.044
[9]; EEE 10 µM
  Gal9 response compared to reference: 0.306
